Experimental findings from the METLIN SMRT retention time set (Domingo-Almenara et al. 2019) are described below.

The data set is described as follows: gradient 5% acetonitrile 3 min, to 50% in 2 min, to 85% in 15 min, held 3 min, 100 µL/min. Conditions: column: Zorbax Extend-C18 2.1 x 50 mm; eluents: water / acetonitrile, 0.1% formic acid. In short, it runs like this:
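Values are retention times taken from adduct peaks that software picked and an analyst inspected. The pure standards were run as mixtures of ~100 molecules on HPLC linked to a quadrupole time-of-flight mass spectrometer, in positive and negative ionization mode. A Zorbax Extend-C18 column (2.1 × 50 mm, 1.8 μm) was used at 100 μL/min with water and acetonitrile, each including 0.1% formic acid.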
In the case of `Cc1cc(Cl)ccc1NC(=O)Cn1cnc2nc3c(cc2c1=O)CCCC3`, the RP-LC retention time is 770 s. For `CC(C)c1noc(COC2CCCN(C(=O)NCc3ccco3)C2)n1` (stereo unspecified) the value was 774 s; for `CS(=O)(=O)N1CCC(CNC(=O)NC(c2ccccc2)c2ccccc2)CC1`, 732 s.

`COCCN1C(=O)[C@H]2CN(Cc3cc(OC)ccc3OC)C[C@H]2C1=O` came in with an RP-LC retention time of 595 s. Then `CC(C)n1nnc2cc(S(=O)(=O)N(C)CC(=O)N3CCN(c4ccccn4)CC3)ccc21`, with 607 s; and `O=C(Cn1nc2c(cc1=O)CCCCC2)Nc1nc(-c2cccnc2)cs1`, with 646 s. For `Cc1ccc(CNC(=O)Cc2nnc(-c3ccc4ncccc4c3)o2)cc1C` the value was 915 s; for `Cc1ccc(C(C)NC(=O)c2cn3c(n2)COCC3)c(C)c1` (stereo unspecified), 667 s. Consider `Cc1noc(-c2ccnc(-n3cnc(C(=O)NCc4cccc(Cl)c4)c3)c2)n1`, for which the RP-LC retention time was found to be 760 s. `Cc1ccc(-c2nc(-c3ccc4nncn4c3)no2)cc1` displayed an RP-LC retention time of 870 s. For `O=C(c1ccccc1)N1CCC(n2nc(-c3ccsc3)ccc2=O)CC1` the value was 780 s; for `O=C(Cn1ccc2sccc2c1=O)Nc1ccc(Br)cc1F`, 832 s; for `CCc1ccc(NC(=O)Cn2c(N3CCCC3)nc(C)cc2=O)cc1`, 699 s. For `CCOC(=O)c1c(C)n(C)c2c1cc(O)c1ccccc12` the value was 945 s; for `OC(CN1CCN(c2ncccn2)CC1)c1ccc(Cl)cc1` (stereo unspecified), 614 s. For `Cc1ccc(-c2cc(C(=O)N3CCC(NC(=O)c4ccc5c(c4)OCO5)CC3)[nH]n2)c(C)c1` the value was 787 s. `Cc1c(C(=O)NCC(C)C)cnn1-c1cc(-c2nc(C3CC3)no2)ccn1`: the RP-LC retention time was found to be 969 s. Then `O=C(c1sc2cccc(F)c2c1Cl)N1CCN(c2ncccn2)CC1`, with 893 s; and `O=C(Nc1ccccc1C(F)(F)F)N1CCN(c2ccc(=O)n(-c3ccc(F)cc3)n2)CC1`, with 794 s. Turning to `Cn1cccc(C(=O)NCCCn2cccc2)c1=O`, the RP-LC retention time worked out at 644 s.

`Cc1ccccc1CNC(=O)c1ccc2c(c1)n(C)c(=O)c1ccnn12` showed an RP-LC retention time of 739 s. Take `CC(C)NC(=O)c1ccc(OCC2CCCN2C(=O)c2ccc(C#N)cc2)cc1` (stereo unspecified): the RP-LC retention time was determined as 734 s.

Molecule `CCOC(=O)c1c(NCCC(C)C)c2cc(Cl)ccc2[nH]c1=O` registered an RP-LC retention time of 890 s. As to `CCOC(=O)CNC(=O)N1CCCCCC1c1ccccc1Cl` (stereo unspecified), the RP-LC retention time amounted to 911 s.

The molecule `Cc1cccc(N2CCN(C(=O)Cn3ccc4ccc(N5CCOCC5)nc43)CC2)c1` showed an RP-LC retention time of 959 s. Then `COc1ccc(OCc2noc(CNC(=O)Nc3cc(OC)c(OC)c(OC)c3)n2)cc1`, with 743 s; and `Cc1ccc(NC(=O)N2CCC(c3nc(C(=O)N4CCCC4)c(C)o3)CC2)cc1C`, with 829 s; and `O=C(Cn1ccn2nc(-c3ccccc3)c(CO)c2c1=O)N1CCN(c2ccccc2)CC1`, with 800 s. The molecule `Cn1c(CCNC(=O)c2ccccc2F)nc2cccnc21` had an RP-LC retention time of 591 s. On to `CCCCC(C=O)NC(=O)[C@H](CC(C)C)NC(=O)OCc1ccccc1` (stereo partly specified), for which the RP-LC retention time is 970 s.

As to `COc1ccc(NS(=O)(=O)c2c(C)nn(-c3ccc(-c4ccccc4)nn3)c2C)cc1OC`, the RP-LC retention time worked out at 895 s. `CCOC(=O)C1CCN(C(=O)Cn2c(N3CCOCC3)nc(C)cc2=O)CC1`: the RP-LC retention time was found to be 620 s. For `CC(C)c1ccc(NC(=O)Cn2cnc3c2c(=O)n(C)c(=O)n3C)cc1`, the RP-LC retention time amounted to 816 s. Turning to `CC1(C(=O)NCc2cccc(Br)c2)Oc2cccnc2NC1=O` (stereo unspecified), the RP-LC retention time stood at 730 s. For `Cc1cccc(N2CCN(c3cc(C(=O)O)c4cc(NC(=O)CC(C)C)ccc4n3)CC2)c1` the value was 710 s; for `COc1ncc(C(=O)NC(C)c2ccc(F)cc2)cn1` (stereo unspecified), 756 s; for `CC(C)(O)CC(=O)NCCn1ccc2ncnc(Nc3ccc(Oc4cccc(C(F)(F)F)c4)c(Cl)c3)c21`, 802 s. The molecule `CCc1ccc(NS(=O)(=O)c2cc(-c3[nH]ncc3C(=O)N3CCCC3)oc2C)cc1` showed an RP-LC retention time of 758 s. Regarding `Cc1cccc(Nc2nc(C(=O)NCCc3ccco3)nc3ccccc23)c1`, the RP-LC retention time stood at 808 s. The molecule `Cc1cccc2sc(NC(=O)C3(c4cccs4)CCOCC3)nc12` had an RP-LC retention time of 987 s. For `O=C(CSc1nc(N2CCCCC2)nc2ccccc12)Nc1ccc2c(c1)OCCO2` the value was 690 s. The molecule `CSc1cccc(NC(=O)C2CCN(c3nccc(C)n3)CC2)c1` gave an RP-LC retention time of 700 s.

In turn, `COc1ccc(CNC(=O)c2cn3cccc(C)c3n2)cc1OC` gave an RP-LC retention time of 604 s. For `O=C(NCc1csc(C2CCN(C(=O)Cc3ccccc3Cl)CC2)n1)C1CCC1`, the RP-LC retention time worked out at 753 s. Molecule `Cc1ccc(NC(=O)N2CCN(CCn3cnc4cccnc43)CC2)cc1Cl` returned an RP-LC retention time of 636 s. Turning to `Cc1ccc(-c2cc(C(=O)N3CCN(c4ccccn4)CC3)nn2C2CCS(=O)(=O)C2)cc1C` (stereo unspecified), the RP-LC retention time stood at 674 s. The molecule `Cc1oc(-c2[nH]ncc2C(=O)N2CCCC2)cc1S(=O)(=O)Nc1ccc(F)c(F)c1` registered an RP-LC retention time of 734 s.

For `COc1ccc(C2C(C(=O)N3CCCC(C)C3)CCC(=O)N2c2cc(OC)c(OC)c(OC)c2)cc1` (stereo unspecified), the RP-LC retention time amounted to 772 s. Then `COc1ccc2c(c1)C1(CCN(C(=O)Cc3ccc(C)cc3)C1)C(=O)N2` (stereo unspecified), with 757 s; and `CCn1cc(CNC(=O)c2cc(-c3ccc4c(c3)OCO4)nc3ccccc23)c(C)n1`, with 818 s; and `CC(=O)N1CCC(C2CCN(C(=O)C3CC=CCC3)C2)CC1` (stereo unspecified), with 691 s. For the molecule `Fc1cccc(-c2noc(-c3ccc(NCCCN4CCC(N5CCCCC5)CC4)nc3)n2)c1`, the RP-LC retention time was 614 s. For `Cc1nc(-c2cn(C)c3ncccc23)sc1C(=O)Nc1ccccc1Cl` the value was 1090 s; for `CCN1CCC(N2CCC3(CC2)NCCc2c3[nH]c3ccc(OC)cc23)CC1`, 517 s; for `CCOC(=O)C1C(=O)NC(N2CCN(Cc3ccccc3)CC2)=NC1c1ccco1` (stereo unspecified), 578 s. For `COC(=O)Nc1nc(CC(=O)Nc2ccc(OC(F)(F)F)cc2)cs1` the value was 766 s; for `O=C(CN1CCCC(COCc2ccccc2)C1)N1CCN(c2ccccc2)CC1` (stereo unspecified), 620 s; for `COCc1cc(=O)n(CC(=O)Nc2cccc(SC)c2)c(N2CCOCC2)n1`, 857 s.

With `NC(=O)CNC(=O)c1cc2c(s1)N(CC1CC1)CCCC2`, the RP-LC retention time is 692 s. Consider `Cc1ccc(-c2cn3c(n2)N(C(=O)C2CCCO2)CCC3)cc1` (stereo unspecified), for which the RP-LC retention time was 635 s. For `COCCn1c(SCc2nc(-c3ccc(OC)cc3)no2)nc2cc3c(cc2c1=O)OCO3` the value was 1020 s. For `Cc1cccc(CC(=O)NCC2CCN(Cc3ccccc3)CC2)c1` the value was 566 s; for `O=C(NCC1CCCO1)c1nc(-c2ccnc(N3CCCCCC3)c2)no1` (stereo unspecified), 641 s; for `Cc1ccc2c(Nc3ccc(F)c(C#N)c3)c(C(=O)N3CCC(C)CC3)cnc2n1`, 603 s. For `O=C(NC1CC1)[C@@H]1C[C@H](Oc2cccnc2)CN1C(=O)C1CC1` the value was 528 s. Take `O=C(NCCc1ccsc1)c1ccc(Cl)c(Cl)c1`: the RP-LC retention time worked out at 933 s. With `COc1ccc(-c2cn3c(CC(=O)NC4CC4)csc3n2)cc1OC`, the RP-LC retention time was found to be 607 s. For the molecule `O=C(NCc1cc(F)cc(F)c1)c1ccc2c(c1)ncn2CCN1CCCC1`, the RP-LC retention time was 594 s. `Cc1ccccc1-c1nc(C2CCN(S(=O)(=O)c3cccc(F)c3)CC2)no1` returned an RP-LC retention time of 1160 s. Then `CS(=O)(=O)Nc1cccc(NC(=O)CCc2c[nH]c3ccccc23)c1`, with 714 s; and `Cc1ccc2nc(C(=O)NCc3ccc(C)o3)cn2c1`, with 660 s. For `O=C(Nc1cccc2ccccc12)c1ccc(F)cc1` the value was 812 s; for `CCn1nccc1-c1cccc(-c2noc(-c3ccnc(Cl)c3)n2)c1`, 1160 s.

`O=C(CCOc1ccc(F)cc1)N1CCN(Cc2ccccc2)CC1` yielded an RP-LC retention time of 575 s. For `Cc1ccc(F)cc1NS(=O)(=O)c1cc2n(c1)CCN(C(C)C)C2=O`, the RP-LC retention time came out at 783 s. Consider `COc1ccccc1-c1noc(C2CCCN2C(=O)c2ccoc2)n1` (stereo unspecified), for which the RP-LC retention time was 763 s. Then `Cc1ccccc1N1CCN(C(=O)c2csc(C(=O)NC3CC3)n2)CC1`, with 884 s. `COc1cc(OC)cc(-c2nc(-c3cn(Cc4ccc(C)cc4)nn3)no2)c1` returned an RP-LC retention time of 1090 s.

Regarding `O=C([C@@H]1C[C@H](F)CN1S(=O)(=O)Cc1cccc(Cl)c1)N1CCc2ccccc2C1`, the RP-LC retention time was found to be 1000 s. For `O=C(NCC(c1cccs1)S(=O)(=O)c1ccc(F)cc1)c1nc2ccccc2s1` (stereo unspecified) the value was 948 s. `CCCS(=O)(=O)N1CC(N(C)Cc2cccnc2)C1` returned an RP-LC retention time of 559 s.
